Measurements: patent publication US9693556B2, “Herbicidal pyridazinone derivatives” (SYNGENTA LIMITED, priority 2011, dated 2017)

How the values were obtained:
Format in all cases: in vivo
[1] = tested on: Ipomoea hederacea (IPOHE); assay: Post-emergence herbicidal glasshouse test on Ipomoea hederacea; settings: for POST Application IPOHE herbicidal damage (five point scale): post-emergence, 1000 g/h, evaluated after 13 days
Summary of the method: (§1)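 Scoring scale: 5=80-100%, 4=60-79%, 3=40-59%, 2=20-39%, 1=0-19% damage, assessed on day 13. Compound sprayed at 1000 g/h on soil-grown plants (day 1 pre-, day 8 post-emergence) kept at 24/16 °C, 14 h light.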

Solanum nigrum (SOLNI) [2] = assay: Pre-emergence herbicidal glasshouse test on Solanum nigrum; settings: for PRE Application SOLNI herbicidal damage (five point scale): pre-emergence, 1000 g/h, evaluated after 13 days
Summary of the method: as §1

[3] = tested on: Echinochloa crus-galli (ECHCG); assay: Post-emergence herbicidal glasshouse test on Echinochloa crus-galli; settings: for POST Application ECHCG herbicidal damage (five point scale): post-emergence, 1000 g/h, evaluated after 13 days
Summary of the method: as §1

[4] = tested on: Amaranthus retoflexus (AMARE); assay: Pre-emergence herbicidal glasshouse test on Amaranthus retoflexus; settings: for PRE Application AMARE herbicidal damage (five point scale): pre-emergence, 1000 g/h, evaluated after 13 days
Summary of the method: as §1

[5] = tested on: Ipomoea hederacea (IPOHE); assay: Pre-emergence herbicidal glasshouse test on Ipomoea hederacea; settings: for PRE Application IPOHE herbicidal damage (five point scale): pre-emergence, 1000 g/h, evaluated after 13 days
Summary of the method: as §1

Setaria faberi (SETFA) [6] = assay: Pre-emergence herbicidal glasshouse test on Setaria faberi; settings: for PRE Application SETFA herbicidal damage (five point scale): pre-emergence, 1000 g/h, evaluated after 13 days
Summary of the method: as §1

Solanum nigrum (SOLNI) [7] = assay: Post-emergence herbicidal glasshouse test on Solanum nigrum; settings: for POST Application SOLNI herbicidal damage (five point scale): post-emergence, 1000 g/h, evaluated after 13 days
Summary of the method: as §1

[8] = tested on: Amaranthus retoflexus (AMARE); assay: Post-emergence herbicidal glasshouse test on Amaranthus retoflexus; settings: for POST Application AMARE herbicidal damage (five point scale): post-emergence, 1000 g/h, evaluated after 13 days
Summary of the method: as §1

Setaria faberi (SETFA) [9] = assay: Post-emergence herbicidal glasshouse test on Setaria faberi; settings: for POST Application SETFA herbicidal damage (five point scale): post-emergence, 1000 g/h, evaluated after 13 days
Summary of the method: as §1

[10] = tested on: Echinochloa crus-galli (ECHCG); assay: Pre-emergence herbicidal glasshouse test on Echinochloa crus-galli; settings: for PRE Application ECHCG herbicidal damage (five point scale): pre-emergence, 1000 g/h, evaluated after 13 days
Summary of the method: as §1

[11] = tested on: Alopecurus myosuroides (ALOMY); assay: Post-emergence herbicidal glasshouse test on Alopecurus myosuroides; settings: for POST Application ALOMY herbicidal damage (five point scale): post-emergence, 1000 g/h, evaluated after 13 days
Summary of the method: as §1

[12] = tested on: Alopecurus myosuroides (ALOMY); assay: Pre-emergence herbicidal glasshouse test on Alopecurus myosuroides; settings: for PRE Application ALOMY herbicidal damage (five point scale): pre-emergence, 1000 g/h, evaluated after 13 days
Summary of the method: as §1

SMILES	POST Application IPOHE herbicidal damage (five point scale) [1]	PRE Application SOLNI herbicidal damage (five point scale) (Solanum nigrum (SOLNI) [2])	POST Application ECHCG herbicidal damage (five point scale) [3]	PRE Application AMARE herbicidal damage (five point scale) [4]	PRE Application IPOHE herbicidal damage (five point scale) [5]	PRE Application SETFA herbicidal damage (five point scale) (Setaria faberi (SETFA) [6])	POST Application SOLNI herbicidal damage (five point scale) (Solanum nigrum (SOLNI) [7])	POST Application AMARE herbicidal damage (five point scale) [8]	POST Application SETFA herbicidal damage (five point scale) (Setaria faberi (SETFA) [9])	PRE Application ECHCG herbicidal damage (five point scale) [10]	POST Application ALOMY herbicidal damage (five point scale) [11]	PRE Application ALOMY herbicidal damage (five point scale) [12]	other results
CC[S+]([O-])c1ccccc1-c1cnn(COC)c(=O)c1O (stereo not drawn) [Compound 2.003]	4 (4=60-79% damage)	1 (1=0-19% damage)	5 (5=80-100% damage)	5 (5=80-100% damage)	1 (1=0-19% damage)	4 (4=60-79% damage)	5 (5=80-100% damage)	5 (5=80-100% damage)	4 (4=60-79% damage)	4 (4=60-79% damage)	3 (3=40-59% damage)	3 (3=40-59% damage)	–
Cn1ncc(-c2cccn(-c3cccc([N+](=O)[O-])c3)c2=O)c(O)c1=O [Compound 1.147]	1 (1=0-19% damage)	1 (1=0-19% damage)	1 (1=0-19% damage)	2 (2=20-39% damage)	1 (1=0-19% damage)	2 (2=20-39% damage)	3 (3=40-59% damage)	1 (1=0-19% damage)	1 (1=0-19% damage)	1 (1=0-19% damage)	1 (1=0-19% damage)	1 (1=0-19% damage)	–
Cn1ncc(-c2cnc(-c3cccc(F)c3)n(C3CCCCC3)c2=O)c(O)c1=O [Compound 10.003, 3-cyclohexyl-2-(3-fluorophenyl)-5-(5-hydroxy-1-methyl-6-oxo-pyridazin-4-yl)pyrimidin-4-one]	–	–	–	–	–	–	–	–	–	–	–	–	POST Application IPOHE ([1]; post-emergence application, Ipomoea hederacea, damage score 1-5): 4 (4=60-79% damage); PRE Application SOLNI (Solanum nigrum (SOLNI) [2]; pre-emergence application, Solanum nigrum, damage score 1-5): 1 (1=0-19% damage); POST Application ECHCG ([3]; post-emergence application, Echinochloa crus-galli, damage score 1-5): 5 (5=80-100% damage); PRE Application AMARE ([4]; pre-emergence application, Amaranthus retoflexus, damage score 1-5): 5 (5=80-100% damage); PRE Application IPOHE ([5]; pre-emergence application, Ipomoea hederacea, damage score 1-5): 1 (1=0-19% damage); PRE Application SETFA (Setaria faberi (SETFA) [6]; pre-emergence application, Setaria faberi, damage score 1-5): 1 (1=0-19% damage); POST Application SOLNI (Solanum nigrum (SOLNI) [7]; post-emergence application, Solanum nigrum, damage score 1-5): 5 (5=80-100% damage); POST Application AMARE ([8]; post-emergence application, Amaranthus retoflexus, damage score 1-5): 5 (5=80-100% damage); POST Application SETFA (Setaria faberi (SETFA) [9]; post-emergence application, Setaria faberi, damage score 1-5): 4 (4=60-79% damage); PRE Application ECHCG ([10]; pre-emergence application, Echinochloa crus-galli, damage score 1-5): 1 (1=0-19% damage); POST Application ALOMY ([11]; post-emergence application, Alopecurus myosuroides, damage score 1-5): 1 (1=0-19% damage); PRE Application ALOMY ([12]; pre-emergence application, Alopecurus myosuroides, damage score 1-5): 1 (1=0-19% damage)
Cn1ncc(-n2cc(N3CCOCC3)c(C(F)(F)F)cc2=O)c(O)c1=O [Compound 1.025]	2 (2=20-39% damage)	1 (1=0-19% damage)	1 (1=0-19% damage)	1 (1=0-19% damage)	1 (1=0-19% damage)	1 (1=0-19% damage)	4 (4=60-79% damage)	2 (2=20-39% damage)	1 (1=0-19% damage)	1 (1=0-19% damage)	1 (1=0-19% damage)	1 (1=0-19% damage)	–
